Source: patent US4861768A, “2 β-substituted thiomethylpenicillin derivatives and their preparation and use” (Taiho Pharmaceutical Company, Limited, priority 1986, dated 1989)

Tests used:
[1] = target: penicillinase (β-lactamase) from Bacillus SP; experiment: Test for β-lactamase inhibitory activity (microiodometry, penicillin G as substrate); format: biochemical; conditions: read-out: 50% Inhibitory Concentration
Experimental: The inhibitory activity of each compound against penicillinase (β-lactamase) from Bacillus SP was determined by microiodometry [Tanpakushitsu Kakusan Koso (Proteins, Nucleic Acids and Enzymes), vol. 23, No.5, pp 391-400 (1978)] using penicillin G as a substrate.

[2] = tested on: Klebsiella pneumoniae 101 L (TEM1); experiment: MIC of piperacillin alone or with compound, Klebsiella pneumoniae 101 L (TEM1); format: cell-based; conditions: 20 h, read-out: MIC, Piperacillin alone
Experimental: (§1) (1) The minimal inhibitory concentrations (MIC) of piperacillin in the presence of 10 μg/ml of compounds of the present invention against various bacteria were determined by the MIC assay method of Japan Society of Chemotherapy (Chemotherapy 29, No. 1, pp. 76-79, 1981). The MIC values of various compounds according to the present invention and of piperacillin, as used singly, were also determined. Each test strain was grown in Mueller Hinton Broth (Difco) and used for inoculation after dilution to a concentration of 10^6 CFU/ml. The assay media (Mueller Hinton Broth) containing piperacillin and the compound according to the present invention in a series of concentrations were inoculated with the test strain and incubated at 37° C. for 20 hours. The minimum concentration at which no more than 5 colonies were observed was determined. […] All the test strains used in the above assays were β-lactamase producers.

Morganella morganii 119 = experiment: MIC of piperacillin alone or with compound, Morganella morganii 119; format: cell-based; conditions: alone, Mueller Hinton Broth, 10^6 CFU/ml, 37° C., 20 hours
Experimental: as §1

[3] = tested on: Staphylococcus aureus 54 K; experiment: MIC of piperacillin alone or with compound, Staphylococcus aureus 54 K; format: cell-based; conditions: alone, Mueller Hinton Broth, 10^6 CFU/ml, 37° C., 20 hours
Experimental: as §1

[4] = tested on: Pseudomonas aeruginosa PSE 3; experiment: MIC of piperacillin alone or with compound, Pseudomonas aeruginosa PSE 3; format: cell-based; conditions: PSE3, alone, Mueller Hinton Broth, 10^6 CFU/ml, 37° C., 20 hours
Experimental: as §1

Acinetobacter 450 L = experiment: MIC of piperacillin alone or with compound, Acinetobacter 450 L; format: cell-based; conditions: alone, Mueller Hinton Broth, 10^6 CFU/ml, 37° C., 20 hours
Experimental: as §1

Echerichia coli SHV 1 = experiment: MIC of piperacillin alone or with compound, Echerichia coli SHV 1; format: cell-based; conditions: 20 h, read-out: MIC, Piperacillin alone
Experimental: as §1

[5] = tested on: Serratia marcescens 200 L (TEM + C); experiment: MIC of piperacillin alone or with compound, Serratia marcescens 200 L (TEM + C); format: cell-based; conditions: alone, Mueller Hinton Broth, 10^6 CFU/ml, 37° C., 20 hours
Experimental: as §1

## CC1(CSc2nnnn2-c2ccc(Cl)cc2)C(C(=O)O)N2C(=O)CC2S1(=O)=O (stereo not drawn) [Compound 29, sodium 2β-(1-p-chlorophenyl-5-tetrazolylthio)methyl-2α-methylpenam-3α-carboxylate 1,1-dioxide]
[1]
  IC50: 0.48 µM

## CC1(CSC#N)C(C(=O)O)N2C(=O)CC2S1(=O)=O (stereo not drawn) [Compound 26, sodium 2α-methyl-2β-thiocyanatomethylpenam-3α-carboxylate 1,1-dioxide]
[1]
  IC50: 9.8 µM

## CCN1CCN(C(=O)N[C@@H](C(=O)N[C@@H]2C(=O)N3[C@@H]2SC(C)(C)[C@@H]3C(=O)O)c2ccccc2)C(=O)C1=O [Piperacillin, piperacillin]
[2]
  MIC: 200 mg/L
Morganella morganii 119
  MIC: 25 mg/L
[3]
  MIC: 6.25 mg/L
[4]
  MIC: 50 mg/L
Acinetobacter 450 L
  MIC: 200 mg/L
Echerichia coli SHV 1
  MIC: 12.5 mg/L
[5]
  MIC: 25 mg/L

## Cn1nnnc1SCC1(C)C(C(=O)O)N2C(=O)CC2S1(=O)=O (stereo not drawn) [Compound 27, sodium 2α-methyl-2β-(1-methyl-5-tetrazolyl)thiomethylpenam-3α-carboxylate 1,1-dioxide]
[1]
  IC50: 0.87 µM

## COc1ccc(-n2nnnc2SCC2(C)C(C(=O)O)N3C(=O)CC3S2(=O)=O)cc1 (stereo not drawn) [Compound 30, sodium 2β-(1-p-methoxyphenyl-5-tetrazolylthio)methyl-2α-methylpenam-3α-carboxylate 1,1-dioxide]
[1]
  IC50: 0.75 µM

## CC1(CSc2nnnn2CCO)C(C(=O)O)N2C(=O)CC2S1(=O)=O (stereo not drawn) [Compound 31, sodium 2β-[1-(2'-hydroxyethyl)-5-tetrazolylthio]methyl-2α-methylpenam-3α-carboxylate 1,1-dioxide]
[1]
  IC50: 1.82 µM

## CC1(CSc2nnnn2-c2ccccc2)C(C(=O)O)N2C(=O)CC2S1(=O)=O (stereo not drawn) [Compound 28, sodium 2α-methyl-2β-(1-phenyl-5-tetrazolyl)thiomethylpenam-3α-carboxylate 1,1-dioxide]
[1]
  IC50: 1 µM
